Assay results published in PubChem BioAssay (NCI).
Several values for one entry are separate records, joined by “and”; a condition that tells them apart may be missing. Equal values may be shown once.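 Five compound concentrations were applied to cells in 96-well plates for 48 hours; endpoints were derived by simple linear interpolation of the resulting dose-response curve. GI50 marks 50% less growth. TGI: concentration producing complete growth inhibition.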

Key:
Experiment in all cases: inhibition of tumour cell growth, NCI panel, 48 h
A498 renal = system: A498 renal
SNB-75 CNS = system: SNB-75 CNS
ACHN renal = system: ACHN renal
EKVX NSCLC = system: EKVX NSCLC
SNB-19 CNS = system: SNB-19 CNS
T-47D breast = system: T-47D breast
SK-MEL-5 melanoma = system: SK-MEL-5 melanoma
RXF 393 renal = system: RXF 393 renal
HCT-116 colon = system: HCT-116 colon
SN12C renal = system: SN12C renal

NC1=Nc2cc(OCCCCN3Cc4ccccc4C3)c(OCC3CC3)cc2C12CCCC2
GI50 (A498 renal): 0.951 µM
TGI (A498 renal): 4.91 µM
GI50 (SNB-75 CNS): 1.19 µM
TGI (SNB-75 CNS): 2.48 µM
GI50 (ACHN renal): 1.71 µM
TGI (ACHN renal): 3.24 µM
GI50 (EKVX NSCLC): 2.77 µM
TGI (EKVX NSCLC): 14.5 µM
GI50 (SNB-19 CNS): 3.28 µM
TGI (SNB-19 CNS): 12.4 µM
GI50 (T-47D breast): 1.78 µM
TGI (T-47D breast): 4.29 µM
GI50 (SK-MEL-5 melanoma): 1.71 µM
TGI (SK-MEL-5 melanoma): 3.1 µM
GI50 (RXF 393 renal): 1.22 µM
TGI (RXF 393 renal): 2.6 µM
GI50 (HCT-116 colon): 1.2 µM
TGI (HCT-116 colon): 2.56 µM
GI50 (SN12C renal): 1.7 µM
TGI (SN12C renal): 3.41 µM

CC1(C)CC[C@]2(C(=O)O)CC[C@]3(C)C(=CC[C@@H]4[C@@]5(C)C/C(=C/c6cccnc6)[C@H](O)C(C)(C)[C@@H]5CC[C@]43C)[C@@H]2C1
GI50 (A498 renal): > 100 µM
TGI (A498 renal): > 100 µM
GI50 (SNB-75 CNS): 38.6 µM
TGI (SNB-75 CNS): > 100 µM
GI50 (ACHN renal): 6.11 µM
TGI (ACHN renal): > 100 µM
GI50 (EKVX NSCLC): 6.02 µM
TGI (EKVX NSCLC): 56.6 µM
GI50 (SNB-19 CNS): 5.55 µM
TGI (SNB-19 CNS): > 100 µM
GI50 (T-47D breast): 9.89 µM
TGI (T-47D breast): > 100 µM
GI50 (SK-MEL-5 melanoma): 6.71 µM
TGI (SK-MEL-5 melanoma): 23.2 µM
GI50 (RXF 393 renal): 7.28 µM
TGI (RXF 393 renal): 36.6 µM
GI50 (HCT-116 colon): 5.12 µM
TGI (HCT-116 colon): 22.4 µM
GI50 (SN12C renal): 4.7 µM
TGI (SN12C renal): > 100 µM

Cc1n[nH]c(C)c1-c1c(C)n[nH]c1C
GI50 (A498 renal): 1.82 µM
TGI (A498 renal): 4.12 µM
GI50 (SNB-75 CNS): 1.7 µM
TGI (SNB-75 CNS): 4.43 µM
GI50 (ACHN renal): 1.52 µM
TGI (ACHN renal): 2.88 µM
GI50 (EKVX NSCLC): 1.93 µM
TGI (EKVX NSCLC): 4.96 µM
GI50 (SNB-19 CNS): 2.06 µM
TGI (SNB-19 CNS): 5.13 µM
GI50 (T-47D breast): 1.91 µM
TGI (T-47D breast): 7.09 µM
GI50 (SK-MEL-5 melanoma): 1.74 µM
TGI (SK-MEL-5 melanoma): 3.18 µM
GI50 (RXF 393 renal): 1.52 µM
TGI (RXF 393 renal): 3.07 µM
GI50 (HCT-116 colon): 1.48 µM
TGI (HCT-116 colon): 3.01 µM
GI50 (SN12C renal): 2.21 µM
TGI (SN12C renal): 5.82 µM

N#CSc1c[nH]c2cccc(/C=C/C(=O)/C=C(O)/C=C/c3cccc4[nH]cc(SC#N)c34)c12
GI50 (A498 renal): 1.03 µM
TGI (A498 renal): 4.27 µM
GI50 (SNB-75 CNS): 0.67 µM
TGI (SNB-75 CNS): 2.68 µM
GI50 (ACHN renal): 0.351 µM
TGI (ACHN renal): 1.04 µM
GI50 (EKVX NSCLC): 0.285 µM
TGI (EKVX NSCLC): 2.13 µM
GI50 (SNB-19 CNS): 0.649 µM
TGI (SNB-19 CNS): 3.2 µM
GI50 (T-47D breast): 0.173 µM
TGI (T-47D breast): 2.27 µM
GI50 (SK-MEL-5 melanoma): 0.467 µM
TGI (SK-MEL-5 melanoma): 0.982 µM
GI50 (RXF 393 renal): 0.326 µM
TGI (RXF 393 renal): 1 µM
GI50 (HCT-116 colon): 0.109 µM
TGI (HCT-116 colon): 0.421 µM
GI50 (SN12C renal): 0.364 µM
TGI (SN12C renal): 1.57 µM

Nc1c2ccccc2nc2ccccc12
GI50 (A498 renal): 1.07 µM and 2.18 µM
TGI (A498 renal): 2.37 µM and 7.28 µM
GI50 (SNB-75 CNS): 2.46 µM and 3.11 µM
TGI (SNB-75 CNS): 6 µM and 10.4 µM
GI50 (ACHN renal): 0.669 µM and 1.89 µM
TGI (ACHN renal): 8.61 µM and 7.19 µM
GI50 (EKVX NSCLC): 1.78 µM and 3.46 µM
GI50 (SNB-19 CNS): 1.82 µM and 3.61 µM
TGI (SNB-19 CNS): 12.9 µM and 20.7 µM
GI50 (T-47D breast): 1.62 µM and 2.99 µM
TGI (T-47D breast): 6.38 µM and 7.61 µM
GI50 (SK-MEL-5 melanoma): 1.62 µM and 2.12 µM
TGI (SK-MEL-5 melanoma): 2.99 µM and 4.46 µM
GI50 (RXF 393 renal): 1.1 µM and 2.31 µM
TGI (RXF 393 renal): 2.77 µM and 6.57 µM
GI50 (HCT-116 colon): 0.702 µM and 2.17 µM
TGI (HCT-116 colon): 8.31 µM and 10.5 µM
GI50 (SN12C renal): 1.5 µM and 2.61 µM
TGI (SN12C renal): 12.4 µM and 10.5 µM

Cc1cc(C)c(CNC(=O)c2cc(Cl)c3c(c2C)O[C@@](C)(C2CCC(N(C)C)CC2)O3)c(=O)[nH]1 (some centres undefined)
GI50 (A498 renal): 27.8 µM
TGI (A498 renal): > 100 µM
GI50 (SNB-75 CNS): 15.2 µM
TGI (SNB-75 CNS): > 100 µM
GI50 (ACHN renal): > 100 µM
TGI (ACHN renal): > 100 µM
GI50 (EKVX NSCLC): > 100 µM
TGI (EKVX NSCLC): > 100 µM
GI50 (SNB-19 CNS): > 100 µM
TGI (SNB-19 CNS): > 100 µM
GI50 (T-47D breast): > 100 µM
TGI (T-47D breast): > 100 µM
GI50 (SK-MEL-5 melanoma): 21.3 µM
TGI (SK-MEL-5 melanoma): 63.2 µM
GI50 (RXF 393 renal): 15.9 µM
TGI (RXF 393 renal): 71.5 µM
GI50 (HCT-116 colon): 40.3 µM
TGI (HCT-116 colon): > 100 µM
GI50 (SN12C renal): > 100 µM
TGI (SN12C renal): > 100 µM
